The values below come from patent US5055470A, “Method of treatment of ischemia in brain” (Bristol-Myers Squibb Co., priority 1989, dated 1991).

The subject of one assay is hypoxia-induced death. Description: Protection against hypoxia-induced death (1-minute exposure to 100% nitrogen atmosphere). It is filed as in vivo. Particulars: rats. The protocol: Groups of rats received either water or drug solution in various doses given i.p. at specified times prior to a 1-minute exposure to a 100% nitrogen atmosphere. This 1-minute nitrogen exposure is lethal within 10 minutes to all animals receiving only vehicle. A 25 mg/kg treatment given 15 minutes before nitrogen exposure protected 3 of 8 animals while giving 50 mg/kg protected all animals.

For assay [1], the system named is NMDA-evoked release of acetylcholine, rat striatal brain tissue slices. Put plainly: Antagonism of NMDA-evoked release of tritiated acetylcholine from striatal slices. It is filed as cell-based. Particulars: rat striatal slices preloaded with tritiated choline; 0.5 mM NMDA; 50 μM compound. The protocol:
Slices of rat striatal brain tissue were preloaded with tritiated choline and the release of tritiated acetylcholine evoked by NMDA in the presence or absence of BMY 14802 hydrochloride is measured.

As for `OC(CCCN1CCN(c2ncc(F)cn2)CC1)c1ccc(F)cc1` (stereo not shown) [BMY 14802, 4-[4-(5-fluoro-2-pyrimidinyl)-1-piperazinyl]-1-(4-fluorophenyl)butanol], the “animals protected from hypoxia-induced death” value was 3 of 8 in the assay on hypoxia-induced death (25 mg/kg i.p. 15 minutes before nitrogen exposure); 4 of 8 with hypoxia-induced death (25 mg/kg i.p. 30 minutes before nitrogen exposure); “no protection” in the assay on hypoxia-induced death (25 mg/kg i.p. 60 minutes before nitrogen exposure); “all animals” with hypoxia-induced death (50 mg/kg i.p. 15 minutes before nitrogen exposure); 3 of 8 with hypoxia-induced death (50 mg/kg i.p. 30 minutes before nitrogen exposure); 2 of 8 in the assay on hypoxia-induced death (50 mg/kg i.p. 60 minutes before nitrogen exposure). For the same compound, the “attenuation of acetylcholine release evoked by NMDA” value in assay [1] is “significant attenuation”.
